From PubChem BioAssay AID322 (DTP/NCI, 2004)
Values joined by “and” are separate entries in the source; they are usually repeats but may differ in a detail not shown here. Equal values may be shown once. Inconclusive results and toxic doses are left out.

Test system: CD2F1 mice, P388/ADR leukemia ip, median survival T/C
Experiment: NCI In Vivo Anticancer Drug Screen. Data for tumor model P388 Leukemia resistant to Adriamycin; NSC 123127, Developed at Scr 08 (intraperitoneal) in CD2F1 (CDF1) mice
Settings: endpoint: median survival time, higher = longer survival
Method: The antitumor activity of compounds was measured in mice bearing transplantable tumors. Survival or tumor size were measured and the results are expressed as the measurement made in the treated group (T) divided by the measurement made in the vehicle treated control group (C). The tumor model used in this assay is P388 Leukemia resistant to Adriamycin; NSC 123127, Developed at Scr 08 (intraperitoneal) in CD2F1 (CDF1) mice

[1] = dose: 0.75 mg/kg/injection, schedule: Q01DX005 (ip), vehicle: saline with Tween-80
[2] = dose: 1.5 mg/kg/injection, schedule: Q01DX005 (ip), vehicle: saline with Tween-80
[3] = dose: 3.0 mg/kg/injection, schedule: Q01DX005 (ip), vehicle: saline with Tween-80
[4] = dose: 12.5 mg/kg/injection, schedule: Q01DX005 (ip), vehicle: saline with Tween-80
[5] = dose: 25.0 mg/kg/injection, schedule: Q01DX005 (ip), vehicle: saline with Tween-80
[6] = dose: 50.0 mg/kg/injection, schedule: Q01DX005 (ip), vehicle: saline with Tween-80
[7] = dose: 67.0 mg/kg/injection, schedule: Q01DX009 (ip), vehicle: saline
[8] = dose: 150.0 mg/kg/injection, schedule: Q01DX009 (ip), vehicle: saline

SMILES: C[C@H](N)C(=O)N[C@@H]1[C@H]2C(=C(O)C[C@@H](O)[C@@H]2O)C(=O)O[C@@H]1C
- T/C (dose: 150.0 mg/kg/injection, schedule: Q01DX005 (ip), vehicle: saline): 100 % of control and 105 % of control
- T/C (dose: 300.0 mg/kg/injection, schedule: Q01DX005 (ip), vehicle: saline): 100 % of control and 104 % of control
- T/C (dose: 600.0 mg/kg/injection, schedule: Q01DX005 (ip), vehicle: saline): 98 % of control and 105 % of control
- T/C (dose: 1200.0 mg/kg/injection, schedule: Q01DX005 (ip), vehicle: saline): 97 % of control and 103 % of control

SMILES: N[C@@H](Cc1ccc(N(CCCl)CCCl)cc1)C(=O)O
- T/C (dose: 0.5 mg/kg/injection, schedule: Q01DX005 (ip), vehicle: saline): 171 % of control and 202 % of control
- T/C (dose: 1.0 mg/kg/injection, schedule: Q01DX005 (ip), vehicle: saline): 200 % of control and 202 % of control
- T/C (dose: 1.62 mg/kg/injection, schedule: Q04DX003 (ip), vehicle: water): 207 % of control
- T/C (dose: 2.0 mg/kg/injection, schedule: Q01DX005 (ip), vehicle: saline): 202 % of control and 297 % of control
- T/C (dose: 2.7 mg/kg/injection, schedule: Q04DX003 (ip), vehicle: water): 215 % of control
- T/C (dose: 4.0 mg/kg/injection, schedule: Q01DX005 (ip), vehicle: saline): 202 % of control and 297 % of control
- T/C (dose: 4.5 mg/kg/injection, schedule: Q04DX003 (ip), vehicle: water): 290 % of control
- T/C (dose: 7.5 mg/kg/injection, schedule: Q04DX003 (ip), vehicle: water): 109 % of control
- T/C (dose: 8.0 mg/kg/injection, schedule: Q01DX005 (ip), vehicle: saline): 297 % of control
- T/C (dose: 12.5 mg/kg/injection, schedule: Q04DX003 (ip), vehicle: water): 95 % of control

SMILES: Cc1cc(O)c2c(c1O)C(=O)C13C(=C2O)C(=O)C2C(O)C1C1C(O)C3C(=O)C3=C(O)c4c(O)cc(C)c(O)c4C(=O)C321 (centres undefined)
- T/C [1]: 101 % of control
- T/C [2]: 117 % of control
- T/C [3]: 122 % of control
- T/C (dose: 6.0 mg/kg/injection, schedule: Q01DX005 (ip), vehicle: saline with Tween-80): 123 % of control

SMILES: CCCCCCCCCCCCN1C(C)=CS/C1=C\C=C\c1scc(C)[n+]1CCCCCCCCCCCC
- T/C [1]: 123 % of control
- T/C [2]: 117 % of control
- T/C [3]: 109 % of control

SMILES: O=CC(CO)CC(C=O)n1cnc2c(=O)[nH]cnc21 (centres undefined)
- T/C (dose: 25.0 mg/kg/injection, schedule: Q01DX005 (ip), vehicle: saline): 122 % of control and 124 % of control
- T/C (dose: 100.0 mg/kg/injection, schedule: Q01DX005 (ip), vehicle: saline): 151 % of control
- T/C (dose: 200.0 mg/kg/injection, schedule: Q01DX005 (ip), vehicle: saline): 160 % of control and 170 % of control
- T/C (dose: 400.0 mg/kg/injection, schedule: Q01DX005 (ip), vehicle: saline): 169 % of control and 170 % of control

SMILES: O=C1NC2(CCCCC2)C(=O)N1CCN(CCCl)CCCl
- T/C (dose: 2.6 mg/kg/injection, schedule: Q01DX009 (ip), vehicle: Klucel (hydroxypropylcellulose) (HPC)): 195 % of control
- T/C (dose: 4.0 mg/kg/injection, schedule: Q01DX009 (ip), vehicle: Klucel (hydroxypropylcellulose) (HPC)): 236 % of control
- T/C (dose: 6.0 mg/kg/injection, schedule: Q01DX009 (ip), vehicle: Klucel (hydroxypropylcellulose) (HPC)): 226 % of control
- T/C (dose: 9.0 mg/kg/injection, schedule: Q01DX009 (ip), vehicle: Klucel (hydroxypropylcellulose) (HPC)): 239 % of control

SMILES: CO[C@@]12[C@H](COC(N)=O)C3=C(C(=O)C(C)=C(N)C3=O)N1C[C@@H]1N[C@@H]12
- T/C (dose: 0.5 mg/kg/injection, schedule: Q01DX009 (ip), vehicle: saline with Tween-80): 178 % of control
- T/C (dose: 1.0 mg/kg/injection, schedule: Q01DX009 (ip), vehicle: saline with Tween-80): 198 % of control and 207 % of control
- T/C (dose: 2.0 mg/kg/injection, schedule: Q01DX009 (ip), vehicle: saline with Tween-80): 110 % of control and 117 % of control
- T/C (dose: 3.6 mg/kg/injection, schedule: Q01DX001 (ip), vehicle: saline): 151 % of control
- T/C (dose: 3.6 mg/kg/injection, schedule: Q01DX001 (ip), vehicle: water): 154 % of control
- T/C (dose: 5.4 mg/kg/injection, schedule: Q01DX001 (ip), vehicle: saline): 177 % of control
- T/C (dose: 5.4 mg/kg/injection, schedule: Q01DX001 (ip), vehicle: water): 162 % of control
- T/C (dose: 12.0 mg/kg/injection, schedule: Q01DX001 (ip), vehicle: saline): 117 % of control
- T/C (dose: 12.0 mg/kg/injection, schedule: Q01DX001 (ip), vehicle: water): 112 % of control

SMILES: COc1ccc(C(C)c2cc3c(cc2OC)OCO3)cc1 (centres undefined)
- T/C [4]: 105 % of control
- T/C [5]: 109 % of control
- T/C [6]: 119 % of control

SMILES: Cc1c2ccncc2c(C)c2c1[nH]c1ccccc12
- T/C (dose: 90.0 mg/kg/injection, schedule: Q04DX002 (ip), vehicle: saline with Tween-80): 115 % of control
- T/C (dose: 134.0 mg/kg/injection, schedule: Q04DX002 (ip), vehicle: saline with Tween-80): 156 % of control
- T/C (dose: 200.0 mg/kg/injection, schedule: Q04DX002 (ip), vehicle: saline with Tween-80): 168 % of control
- T/C (dose: 300.0 mg/kg/injection, schedule: Q04DX002 (ip), vehicle: saline with Tween-80): 153 % of control

SMILES: O=C(O)Cc1cccc2c(=O)cc(-c3ccccc3)oc12
- T/C (dose: 24.12 mg/kg/injection, schedule: Q01DX005 (ip), vehicle: saline): 102 % of control
- T/C (dose: 30.0 mg/kg/injection, schedule: Q01DX009 (ip), vehicle: saline): 114 % of control
- T/C (dose: 30.0 mg/kg/injection, schedule: Q01DX009 (ip), vehicle: sodium bicarbonate): 124 % of control
- T/C (dose: 40.2 mg/kg/injection, schedule: Q01DX005 (ip), vehicle: saline): 118 % of control
- T/C (dose: 44.0 mg/kg/injection, schedule: Q01DX009 (ip), vehicle: sodium bicarbonate): 167 % of control
- T/C (dose: 60.0 mg/kg/injection, schedule: Q04DX002 (ip), vehicle: sodium bicarbonate): 118 % of control
- T/C [7]: 187 % of control
- T/C (dose: 67.0 mg/kg/injection, schedule: Q01DX009 (ip), vehicle: sodium bicarbonate): 187 % of control and 237 % of control and 245 % of control
- T/C (dose: 90.0 mg/kg/injection, schedule: Q04DX002 (ip), vehicle: sodium bicarbonate): 118 % of control
- T/C (dose: 100.0 mg/kg/injection, schedule: Q01DX009 (ip), vehicle: sodium bicarbonate): 207 % of control and 240 % of control and 291 % of control
- T/C (dose: 111.67 mg/kg/injection, schedule: Q01DX005 (ip), vehicle: saline): 161 % of control
- T/C (dose: 134.0 mg/kg/injection, schedule: Q04DX002 (ip), vehicle: sodium bicarbonate): 112 % of control
- T/C [8]: 104 % of control
- T/C (dose: 150.0 mg/kg/injection, schedule: Q01DX009 (ip), vehicle: sodium bicarbonate): 233 % of control and 260 % of control and 124 % of control
- T/C (dose: 175.0 mg/kg/injection, schedule: Q01DX009 (ip), vehicle: sodium bicarbonate): 103 % of control
- T/C (dose: 186.12 mg/kg/injection, schedule: Q01DX005 (ip), vehicle: saline): 164 % of control

SMILES: Nc1ccc2ccc(NS(=O)(=O)N3CCCCC3)cc2c1
- T/C [5]: 111 % of control
- T/C [6]: 107 % of control
- T/C (dose: 100.0 mg/kg/injection, schedule: Q01DX005 (ip), vehicle: saline with Tween-80): 106 % of control
- T/C (dose: 200.0 mg/kg/injection, schedule: Q01DX005 (ip), vehicle: saline with Tween-80): 101 % of control
- T/C (dose: 400.0 mg/kg/injection, schedule: Q01DX005 (ip), vehicle: saline with Tween-80): 99 % of control

SMILES: NCCCN=c1ccc2c3c1c(O)c1c(O)ccc(=O)c1c3[nH]n2CCNCCO
- T/C (dose: 25.0 mg/kg/injection, schedule: Q01DX001 (ip), vehicle: water): 107 % of control

SMILES: COc1cccc2c1C(=O)c1c(O)c3c(c(O)c1C2=O)CC(O)(C(=O)CO)CC3OC1CC(N)C(I)C(C)O1 (centres undefined)
- T/C (dose: 2.2 mg/kg/injection, schedule: Q01DX001 (ip), vehicle: saline): 98 % of control
- T/C (dose: 3.3 mg/kg/injection, schedule: Q01DX001 (ip), vehicle: saline): 99 % of control
- T/C (dose: 5.0 mg/kg/injection, schedule: Q01DX001 (ip), vehicle: saline): 108 % of control and 117 % of control
- T/C (dose: 7.5 mg/kg/injection, schedule: Q01DX001 (ip), vehicle: saline): 118 % of control
- T/C (dose: 25.2 mg/kg/injection, schedule: Q01DX001 (ip), vehicle: saline): 150 % of control

SMILES: COc1cc2c(c3c1c(=O)c1ccccc1n3C)C=CC(C)(C)O2
- T/C [4]: 115 % of control
- T/C [5]: 87 % of control
- T/C [6]: 90 % of control

SMILES: CN1CCN(c2ccc3nc(-c4ccc5nc(-c6ccc(O)cc6)[nH]c5c4)[nH]c3c2)CC1
- T/C (dose: 44.0 mg/kg/injection, schedule: Q01DX009 (ip), vehicle: saline): 118 % of control
- T/C [7]: 109 % of control
- T/C (dose: 100.0 mg/kg/injection, schedule: Q01DX009 (ip), vehicle: saline): 105 % of control
- T/C [8]: 103 % of control
